Assay: in vitro
Conditions: human, hela cells, % viability

Row | SMILES | viability at 28.5 h, 10 µM
1 | Nc1ncc(-c2cncnc2)nc1NCc1ccccc1 [CBK063584] | 103%
2 | CCC1CN(C(C)=O)CCC1NCc1ccc(OCC(N)=O)cc1 (centres unmarked) [CBK305168] | 102%
3 | CC(=O)Nc1ccc(C2=NC3SC(c4ccc(NC(C)=O)cc4)=NC3S2)cc1 (centres unmarked) [CBK019799] | 103%
4 | CCOC(=O)N1CCN(C2CCCN(Cc3c(C)nn(C)c3Cl)C2)CC1 (centres unmarked) [CBK306853] | 96.2%
5 | Cc1cc(C)n(CC(=O)Nc2nc(CN3CCC(C)CC3)cs2)n1 [CBK305592] | 101%
6 | Cc1cnn(C)c1CN1CCC(C(N)=O)(N2CCCCC2)CC1 [CBK304400] | 89.4%
7 | O=C(O)CCSC1=CCS(=O)(=O)c2ccc(Cl)cc21 [CBK013721] | 114%
8 | Cc1ccc(Oc2ccc3c(c2)C(=O)N(CC(=O)O)C3=O)cc1 [CBK287126] | 91.4%
9 | OCCN(Cc1cccnc1)Cc1cccn1Cc1ccccc1F [CBK282945] | 93.5%
10 | CC1(C)CC(NC2=CC(=O)CC2)CC(C)(C)N1 [CBK028997] | 115%
11 | Cc1ccc(CN(CCN(C)C)Cc2c(C)nc3sccn23)o1 [CBK283229] | 116%
12 | CCOc1ccc(-c2n[nH]c(=S)n2CCC(=O)N2CCCN(Cc3ccc(C#N)cc3)CC2)cc1 [CBK297893] | 95.8%
13 | Cc1csc(CC(C)n2cc(Cl)cn2)n1 (centres unmarked) [CBK304797] | 99.8%
14 | Cc1ccc(S(=O)(=O)Nc2nc3ccc(S(=O)(=O)N4CCOCC4)cc3s2)cc1 [CBK266988] | 88.8%
15 | CC(C)CC1(C(CCN2C(=O)c3ccccc3C2=O)C(=O)NO)CCN(Cc2cccc(F)c2)C1=O (centres unmarked) [CBK013032] | 83.8%
16 | O=C(CSc1ccc(-c2ccc(-n3ccnc3)cc2)nn1)NCc1ccco1 [CBK287717] | 62.2%
17 | CCOC(=O)c1cc2c(CNc3ccc(OC)nc3)cccc2o1 [CBK006086] | 91.7%
18 | O=c1c2ccccc2c(-c2ccc(Cl)cc2)nn1-c1cc(N2CCNCC2)ccc1[N+](=O)[O-] [CBK265763] | 98.7%
19 | Cc1ccc2c(C)nc(Nc3nc(CSc4nnc(C)s4)cc(=O)[nH]3)nc2c1 [CBK269027] | 87.1%
20 | COc1ccc(CCN2C(=O)c3[nH]nc(-c4cc(C)c(C)cc4O)c3C2c2ccccc2)cc1 (centres unmarked) [CBK269154] | 106%
21 | O=C(c1cc(S(=O)(=O)NCc2ccco2)c(Cl)cc1Cl)N1CCC1 [CBK305004] | 98%

Row | SMILES | viability at 28.5 h, 10 µM
22 | O=C(Nc1sc2c(c1C(=O)NCC1CCCO1)CCCC2)c1ccccc1[N+](=O)[O-] (centres unmarked) [CBK264608] | 102%
23 | Cc1ccccc1Cn1nc(C)c(NC(=O)c2nc3n(n2)C(C(F)F)CC(C)N3)c1C (centres unmarked) [CBK267633] | 92.6%
24 | CC(Oc1ccc(Cl)cc1Cl)C(=O)O/N=C(\N)c1ccccn1 (centres unmarked) [CBK264673] | 100%
25 | CCN(CC(=O)NCc1ccc(Cl)cc1)S(=O)(=O)c1ccc(OC)cc1 [CBK305836] | 92.6%
26 | CN1CCN(C2Cc3ccccc3Sc3c(O)cccc32)CC1 (centres unmarked) [CBK026200G] | 98%
27 | NC(=O)CN1CC2(CCN(Cc3cccc4cccnc34)CC2)c2ccccc21 [CBK137021] | 123%
28 | C#CCOc1cccc2oc(CCC)cc(=O)c12 [CBK005628] | 87.6%
29 | O=C(O)CN(c1ccc(F)cc1)S(=O)(=O)c1ccc2c(c1)OCCO2 [CBK287096] | 84.1%
30 | O=C(NCCNC(=O)c1ccccn1)c1cccc(F)c1 [CBK269613] | 78.3%
31 | O=C(N1CCn2cnnc2C1)C1(c2ccccc2)CCCC1 [CBK283926] | 90.8%
32 | O=C(O)C1CCN(c2cncc(-c3ccc4ccccc4c3)n2)CC1 [CBK065801] | 95.5%
33 | CCN(CC)C(=O)CN1CCC(Oc2cncc(OCc3cccnc3)n2)C1 (centres unmarked) [CBK084461] | 92.4%
34 | CN(CC(=O)O)C(=O)c1ccc(S(=O)(=O)N2CCCC2)cc1 [CBK265724] | 91.8%
35 | C=CCn1c(Cc2csc(NC(=O)c3ccc(OC)c(OC)c3)n2)n[nH]c1=S [CBK295324] | 102%
36 | COc1cc(C(=O)Nc2nc3c(C)cccc3s2)cc(OC)c1OC [CBK287302] | 98.5%
37 | CC(C)(C)OC(=O)NC1CCC(NCc2cc(F)cc(F)c2)CC1 (centres unmarked) [CBK056689] | 91.3%
38 | CN1CCC(C(=O)NC(=O)Nc2ccccc2F)CC1 [CBK034827] | 93.2%
39 | COc1ccc([C@@]23CC[C@@H](NC(=O)Nc4ccc(-c5csnn5)cc4)C[C@@H]2N(C)CC3)cc1OC [CBK051163T] | 95.3%
40 | COC(=O)c1c(NC(=S)NNC(=O)c2nn(C)c(C)c2Br)sc2c1CCC(C)C2 (centres unmarked) [CBK267052] | 93.9%
41 | CCN(CC)C(=O)CNS(=O)(=O)c1cc(Br)c(Cl)s1 [CBK034500] | 112%
42 | Cc1nn(C)cc1-c1cncn1C(C)Cc1c(C)nn(C)c1C (centres unmarked) [CBK281786] | 115%

Row | SMILES | viability at 28.5 h, 10 µM
43 | COc1ccc(C(C)C)cc1-c1cnc2nc(NS(C)(=O)=O)ccc2c1 [CBK085672] | 102%
44 | Cc1nn2c(-c3ccncc3)ccnc2c1-c1ccccc1 [CBK288548] | 103%
45 | Cc1cc(OC(C)C(=O)Nc2ccccc2C(=O)N2CCCC2)ccc1Cl (centres unmarked) [CBK269710] | 94.3%
46 | COCCNc1nc(-c2ccccc2)ccc1C(=O)N(C)CCN(C)C [CBK105913] | 99.3%
47 | Cc1cccc(NC(=O)CSc2ncnc3sc4c(c23)CCC(C)C4)c1 (centres unmarked) [CBK265738] | 102%
48 | O=C(O)C1C2C=CC3(CN(C4CCCCC4)C(=O)C13)O2 (centres unmarked) [CBK287248] | 84.8%
49 | CC(C)c1nsc(NS(=O)(=O)c2cc(OCC(F)(F)F)ccc2OCC(F)(F)F)n1 [CBK051262] | 106%
50 | O=C(c1cc2nc(-c3ccccc3)cc(-c3ccccc3)n2n1)N1CCN(C(=O)c2ccco2)CC1 [CBK269056] | 99.4%
51 | O=C(CCNS(=O)(=O)c1ccccc1Cl)N1CCN(C(=O)C2CC2)CC1 [CBK306025] | 113%
52 | Cn1c(=O)c2c(ncn2CCOc2cnc(-c3cnn(Cc4ccccc4)c3)c(N)n2)n(C)c1=O [CBK145193] | 97.4%
53 | CCC(O)CN1CCCC(c2nc3cc(C)ccc3[nH]2)C1 (centres unmarked) [CBK304854] | 88.8%
54 | Cc1noc(C2(O)CCN(Cc3sccc3Cl)C2)n1 (centres unmarked) [CBK304863] | 97.5%
55 | Cc1ccc(C)c(-c2csc(NS(=O)(=O)c3cccc(C(=O)O)c3)n2)c1 [CBK296696] | 86.7%
56 | CCOC(=O)c1[nH]c2ccccc2c1NC(=O)Cc1c(Cl)cccc1Cl [CBK160132] | 95.6%
57 | Cc1ncccc1C(=O)N1CCC2(CCc3ccccc3C(=O)N2)C1 (centres unmarked) [CBK283338] | 108%
58 | COCC(=O)N1C2CCC(C2)[C@@H]1COc1ccc(F)cc1 (some centres unmarked) [CBK284603] | 109%
59 | CC(C)C(=O)N1CCC2(C/C=C/C[C@H]3COCC[C@H]3NC(=O)CNC2=O)CC1 [CBK292157] | 95.8%
60 | OC(COc1ccc2c(c1)OCO2)CN1CCN(C(c2ccccc2)c2ccccc2)CC1 (centres unmarked) [CBK074854C] | 87.5%
61 | COc1cccc(OCC(=O)Nc2ccccc2C(=O)O)c1 [CBK286819] | 85.9%
62 | CCOc1ccc2[nH]c(=O)c(/C=C3\SC(=S)N(CCC(=O)O)C3=O)cc2c1 [CBK265213] | 89.7%
63 | CN1CCN(C(=O)c2ccc(-c3cnc(OCC4CCN(C(=O)OC(C)(C)C)CC4)nc3)cn2)CC1 [CBK170021] | 93.5%

Row | SMILES | viability at 28.5 h, 10 µM
64 | COc1cc(NC(=O)C(C)Oc2ccc(Cl)cc2C)c(C(=O)O)cc1OC (centres unmarked) [CBK266430] | 86%
65 | CN(CC(=O)Nn1cnnc1)S(=O)(=O)c1ccc(Br)cc1 [CBK268597] | 85.9%
66 | O=C(OCc1ccc(S(=O)(=O)N2CCOCC2)cc1)c1cc(-c2ccccc2)nc2ccccc12 [CBK267411] | 89.6%
67 | O=S1(=O)CCN(Cc2ccc3c(c2)OCO3)CC1 [CBK074780] | 93.9%
68 | Cc1ccc(-c2csc(NC(=O)CN3C(=O)CCC3=O)n2)cc1 [CBK287346] | 98.3%
69 | Cc1cc(CNS(=O)(=O)N2CCCC2)c2[nH]c(C)c(C)c2c1 [CBK282772] | 95.1%
70 | O=C(N1CCCC1)N1CCN(c2cncc(-c3ccc(O)cc3)n2)CC1 [CBK126947T] | 93.5%
71 | CN(C)C(=O)c1ccc(-c2ncc(OCCN3CCCC3=O)nc2N)cc1 [CBK145184] | 97.5%
72 | O=C(NCc1c(Cl)cccc1Cl)N1CCCC(CO)C1 (centres unmarked) [CBK156054] | 95.7%
73 | COc1cc(OC)c(C(C)=O)c(OCCOc2nccnc2N2CCNCC2)c1 [CBK013497T] | 95.8%
74 | CC(=O)N(C)c1nc(-c2cccc(N(C)C)c2)ccc1C(=O)N(C)C [CBK076555] | 92.3%
75 | O=C(Nc1cccc(OCc2ccccc2)c1)c1cnc(-c2ccc(Cl)cc2)c(-c2ccco2)c1 [CBK037429] | 93.9%
76 | O=C1COc2ccc(C(=O)CSc3nnc(C4CC4)n3C3CC3)cc2N1 [CBK297110] | 73.4%
77 | NS(=O)(=O)c1ccc(CCNC(=O)COc2ccc(Cl)cc2Cl)cc1 [CBK265694] | 90.2%
78 | CCOC(=O)NC(NCc1ccco1)(C(F)(F)F)C(F)(F)F [CBK057654] | 102%
79 | CC(=O)Oc1ccc(N2C(=O)CCSC2=S)cc1 [CBK005283] | 89.4%
80 | NC(=O)c1ccc(NC(=O)N2CCc3ccccc3C2)cc1 [CBK155299] | 80.9%
81 | Cc1ccc(C(=O)NCc2cccc(COCc3ccco3)c2)cc1F [CBK297750] | 83.5%
82 | CCC(NC(=O)C(C)Cn1cccn1)c1ccc(F)cc1 (centres unmarked) [CBK283210] | 88.1%
83 | Cc1nnc(Sc2nc(CN3CCOCC3)nc3scc(-c4cccs4)c23)n1C [CBK297092] | 103%
84 | O=C(CSC1c2ccccc2Oc2ccccc21)Nc1cccc(C(=O)O)c1 [CBK266566] | 97.9%

Same assay, conditions: human, hela cells, % viability, bulk resorufin, single well

Row | SMILES | viability at 28.5 h, 10 µM
85 | CCOc1ccc(N2C(=O)NC(=O)/C(=C\NC(C)(CO)CO)C2=O)cc1 [CBK261437] | 99.5%
86 | Cc1nnsc1C(=O)N[C@H]1CCN2C(=O)N(CCCl)C(=O)[C@@H]2C1 [CBK289550] | 95.6%

From publication PMC12040169 (PLOS Biology, 2025)
